# Laboratory results reported in patent US4492650A, “A54556 Antibiotics and process for production thereof” (Eli Lilly and Company, priority 1982, dated 1985).
# Like-named read-outs stand apart in the source and are kept apart here. Bridge positions count the residues as written; N and C are the ends. Square brackets hold non-standard residues; d marks the D form. Peptide text beside a SMILES is read from it. * marks the point of attachment. ξ: configuration not given here. ξPro(4ξ-Me) = CC1CNC(C(=O)O)C1; NMeA = CN[CH](C)C(=O)O; X1 = O=C(/C=C/C=C/CO)*
# Key:
# [1] = system: Fusobacterium symbiosum 1470; assay: MIC, agar-dilution method; type: cell-based
# [2] = system: Streptococcus sp. (Group D) X66; assay: Disc-plate sensitivity; type: cell-based; conditions: Streptococcus, second test, Table 13
# [3] = system: Streptococcus pyogenes (Group A) C203; conditions: second test, Table 13
# [4] = system: Bacteroides vulgatis 1211; assay: MIC, agar-dilution method; type: cell-based
# S. pyogenes = assay: In vivo protection against experimental bacterial infection in mice; conditions: Streptococcus pyogenes, sc, two doses subcutaneously
# Procedure: (§1) When two doses of test compound were administered subcutaneously to mice in illustrative infections, the activity is measured as an ED50 value [effective does in mg./kg. to protect fifty percent of the test animals: See Warren Wick et al., J. Bacteriol. 81, 233-235 (1961)]. The ED50 values for these antibiotic A54556 factors are recorded in Table 15, which follows.
# [5] = system: Peptococcus asaccharolyticus 1302; assay: MIC, agar-dilution method; type: cell-based; conditions: Peptoniphilus asaccharolyticus
# Peptococcus prevoti 1281 = assay: MIC, agar-dilution method; type: cell-based
# Bacteroides fragilis 111 = assay: MIC, agar-dilution method; type: cell-based
# Source text: (§2) Antibiotic A54556 factors A, B, C, D, E, F, G, and H have been tested and found to be active against a number of anaerobic bacteria, as recorded in Table 14, which follows, the MIC values having been determined by the agar-dilution method.
# [6] = system: Bacteroides melaninogenicus 1856/28; assay: MIC, agar-dilution method; type: cell-based; conditions: Prevotella intermedia
# Source text: as §2
# [7] = system: Clostridium septicum 1128; assay: MIC, agar-dilution method; type: cell-based
# Source text: as §2
# [8] = system: Peptostreptococcus intermedius 1264; assay: MIC, agar-dilution method; type: cell-based
# Source text: as §2
# [9] = system: Bacteroides fragilis 1936B; assay: MIC, agar-dilution method; type: cell-based
# Source text: as §2
# [10] = system: Bacteroides thetaiotaomicron 1438; assay: MIC, agar-dilution method; type: cell-based
# Source text: as §2
# [11] = system: Bacteroides fragilis 1877; assay: MIC, agar-dilution method; type: cell-based
# Source text: as §2
# [12] = system: Propionibacterium acnes 79; assay: MIC, agar-dilution method; type: cell-based; conditions: Cutibacterium acnes
# Source text: as §2
# [13] = system: Bacteroides melaninogenicus 2736; assay: MIC, agar-dilution method; type: cell-based
# Source text: as §2
# [14] = system: Fusobacterium necrophorum 6054A; assay: MIC, agar-dilution method; type: cell-based
# Source text: as §2
# [15] = system: Clostridium difficile 2994; assay: MIC, agar-dilution method; type: cell-based; conditions: Clostridioides difficile
# Source text: as §2
# [16] = system: Eubacterium aerofaciens 1235; assay: MIC, agar-dilution method; type: cell-based; conditions: Collinsella aerofaciens
# Source text: as §2
# [17] = system: Clostridium perfringens 81; assay: microbe, parasite or virus in culture; type: cell-based
# [18] = system: Staphylococcus aureus V41; conditions: second test, Table 13, benzylpenicillin resistant
# Electrometric titration = type: physicochemical; conditions: 66 percent dimethylformamide in water
# Source text: Antibiotic A54556 factor A is a tan, amorphous solid. […] As determined by electron impact and field desorption mass spectrometry, A54556 factor A has a molecular weight of 718.
# anaerobic bacteria = assay: Activity against anaerobic bacteria; type: cell-based; conditions: agar-dilution method
# [19] = system: Peptostreptococcus anaerobius 1428; assay: MIC, agar-dilution method; type: cell-based
# [20] = system: Bacteroides corrodens 1874; assay: MIC, agar-dilution method; type: cell-based; conditions: Eikenella corrodens
# [21] = system: Streptococcus pneumoniae Park I; conditions: second test, Table 13
# [22] = system: Staphylococcus epidermidis EPI1; conditions: second test, Table 13
# [23] = system: experimental bacterial infections; assay: In vivo antimicrobial activity against experimental bacterial infections; conditions: mice, subcutaneously
# Procedure: as §1
# [24] = system: Staphylococcus aureus 3055; conditions: second test, Table 13, benzylpenicillin-susceptible
compound,measurement,setting,value
CC1CC2C(=O)N(C)C(C)C(=O)NC(C)C(=O)N3CCCC3C(=O)OCC(NC(=O)C(Cc3ccccc3)NC(=O)/C=C/C=C/CO)C(=O)N2C1 (centres unmarked) [Factor H] (X1-FS[ξPro(4ξ-Me)][NMeA]AP; ester 2-C; configuration not given here),MIC,[1],> 128 µg/mL
same,zone of inhibition at 30 µg/disc,"[2]; read-out: Zone diameter, 30 mcg./disc",21 mm
same,zone of inhibition at 300 µg/disc,"[2]; read-out: Zone diameter, 300 mcg./disc",27 mm
same,Zone diameter,[3]; 30 mcg./disc,30 mm.
same,Zone diameter,[3]; 300 mcg./disc,32 mm.
same,MIC,[4],> 128 µg/mL
same,ED50,S. pyogenes,9.9 mg/kg
same,MIC,[5],> 128 µg/mL
same,MIC,Peptococcus prevoti 1281,> 128 µg/mL
same,MIC,Bacteroides fragilis 111,> 128 µg/mL
same,MIC,[6],> 128 µg/mL
same,MIC,[7],> 128 µg/mL
same,MIC,[8],> 128 µg/mL
same,MIC,[9],> 128 µg/mL
same,MIC,[10],> 128 µg/mL
same,MIC,[11],> 128 µg/mL
same,MIC,[12],> 128 µg/mL
same,MIC,[13],> 128 µg/mL
same,MIC,[14],> 128 µg/mL
same,MIC,[15],> 128 µg/mL
same,MIC,[16],> 128 µg/mL
same,MIC,[17],> 128 µg/mL
same,Zone diameter,[18]; 30 mcg./disc,10 mm.
same,Zone diameter,[18]; 300 mcg./disc,14 mm.
same,titratable groups,Electrometric titration,no titratable groups
same,activity against a number of anaerobic bacteria,anaerobic bacteria,active
same,MIC,[19],128 µg/mL
same,MIC,[20],> 128 µg/mL
same,Zone diameter,[21]; 30 mcg./disc,25 mm.
same,Zone diameter,[21]; 300 mcg./disc,36 mm.
same,Zone diameter,[22]; 30 mcg./disc,12 mm.
same,Zone diameter,[22]; 300 mcg./disc,24 mm.
same,in vivo antimicrobial activity against experimental bacterial infections,[23],have shown in vivo antimicrobial activity
same,Zone diameter,[24]; 30 mcg./disc,8 mm.
same,Zone diameter,[24]; 300 mcg./disc,11 mm.
